PubChem BioAssay (NCI)
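Cells were grown in 96-well plates and exposed to each compound for 48 hours at five concentrations; endpoints were interpolated linearly between bracketing concentrations, or set to the highest concentration if not reached. Definition used: TGI = concentration required for complete inhibition of growth.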

Legend:
Assay in all cases: growth of human tumour cells (NCI), 48 h
M14 melanoma = tested on: M14 melanoma
SK-MEL-2 melanoma = tested on: SK-MEL-2 melanoma
NCI-H460 lung = tested on: NCI-H460 lung
HCT-116 colon = tested on: HCT-116 colon
OVCAR-4 ovarian = tested on: OVCAR-4 ovarian
MALME-3M melanoma = tested on: MALME-3M melanoma
CAKI-1 renal = tested on: CAKI-1 renal
IGROV1 ovarian = tested on: IGROV1 ovarian
SF-539 CNS = tested on: SF-539 CNS
CCRF-CEM leukemia = tested on: CCRF-CEM leukemia
SN12C renal = tested on: SN12C renal
A549 NSCLC = tested on: A549 NSCLC
OVCAR-3 ovarian = tested on: OVCAR-3 ovarian
MOLT-4 leukemia = tested on: MOLT-4 leukemia
OVCAR-8 ovarian = tested on: OVCAR-8 ovarian
SK-MEL-5 melanoma = tested on: SK-MEL-5 melanoma
XF 498 CNS = tested on: XF 498 CNS
OVCAR-5 ovarian = tested on: OVCAR-5 ovarian
K-562 leukemia = tested on: K-562 leukemia
U251 CNS = tested on: U251 CNS
ACHN renal = tested on: ACHN renal
SK-OV-3 ovarian = tested on: SK-OV-3 ovarian
EKVX NSCLC = tested on: EKVX NSCLC
M19-MEL melanoma = tested on: M19-MEL melanoma
HT29 colon = tested on: HT29 colon
UACC-62 melanoma = tested on: UACC-62 melanoma
SK-MEL-28 melanoma = tested on: SK-MEL-28 melanoma
RXF 393 renal = tested on: RXF 393 renal
UACC-257 melanoma = tested on: UACC-257 melanoma
NCI-H23 lung = tested on: NCI-H23 lung
SW-620 colon = tested on: SW-620 colon
NCI-H226 lung = tested on: NCI-H226 lung
HL-60(TB) leukemia = tested on: HL-60(TB) leukemia
DMS 114 small cell lung = tested on: DMS 114 small cell lung
LOX IMVI melanoma = tested on: LOX IMVI melanoma
NCI-H522 lung = tested on: NCI-H522 lung
786-0 renal = tested on: 786-0 renal
SNB-75 CNS = tested on: SNB-75 CNS
COLO 205 colon = tested on: COLO 205 colon
DMS 273 small cell lung = tested on: DMS 273 small cell lung
HCT-15 colon = tested on: HCT-15 colon
DLD-1 colon = tested on: DLD-1 colon
RXF-631 renal = tested on: RXF-631 renal
KM12 colon = tested on: KM12 colon
HOP-92 NSCLC = tested on: HOP-92 NSCLC
A498 renal = tested on: A498 renal
RPMI-8226 leukemia = tested on: RPMI-8226 leukemia
HOP-18 NSCLC = tested on: HOP-18 NSCLC
HOP-62 NSCLC = tested on: HOP-62 NSCLC
LXFL 529 NSCLC = tested on: LXFL 529 NSCLC
KM20L2 colon = tested on: KM20L2 colon
UO-31 renal = tested on: UO-31 renal
SF-295 CNS = tested on: SF-295 CNS
SF-268 CNS = tested on: SF-268 CNS
SNB-19 CNS = tested on: SNB-19 CNS
TK-10 renal = tested on: TK-10 renal
SNB-78 CNS = tested on: SNB-78 CNS
SR leukemia = tested on: SR leukemia
HCC-2998 colon = tested on: HCC-2998 colon

Compound: O=C1c2ccccc2C(=O)N1CCCOCc1c[nH]c(=O)[nH]c1=O
- TGI (M14 melanoma): > 100 µM
- TGI (SK-MEL-2 melanoma): > 100 µM
- TGI (NCI-H460 lung): > 100 µM
- TGI (HCT-116 colon): > 100 µM
- TGI (OVCAR-4 ovarian): > 100 µM
- TGI (MALME-3M melanoma): > 100 µM
- TGI (CAKI-1 renal): > 100 µM
- TGI (IGROV1 ovarian): > 100 µM
- TGI (SF-539 CNS): > 100 µM
- TGI (CCRF-CEM leukemia): > 100 µM
- TGI (SN12C renal): > 100 µM
- TGI (A549 NSCLC): > 100 µM
- TGI (OVCAR-3 ovarian): > 100 µM
- TGI (MOLT-4 leukemia): > 100 µM
- TGI (OVCAR-8 ovarian): > 100 µM
- TGI (SK-MEL-5 melanoma): > 100 µM
- TGI (XF 498 CNS): > 100 µM
- TGI (OVCAR-5 ovarian): > 100 µM
- TGI (K-562 leukemia): > 100 µM
- TGI (U251 CNS): > 100 µM
- TGI (ACHN renal): > 100 µM
- TGI (SK-OV-3 ovarian): > 100 µM
- TGI (EKVX NSCLC): > 100 µM
- TGI (M19-MEL melanoma): > 100 µM
- TGI (HT29 colon): > 100 µM
- TGI (UACC-62 melanoma): > 100 µM
- TGI (SK-MEL-28 melanoma): > 100 µM
- TGI (RXF 393 renal): > 100 µM
- TGI (UACC-257 melanoma): > 100 µM
- TGI (NCI-H23 lung): > 100 µM
- TGI (SW-620 colon): > 100 µM
- TGI (NCI-H226 lung): > 100 µM
- TGI (HL-60(TB) leukemia): > 100 µM
- TGI (DMS 114 small cell lung): > 100 µM
- TGI (LOX IMVI melanoma): > 100 µM
- TGI (NCI-H522 lung): > 100 µM
- TGI (786-0 renal): > 100 µM
- TGI (SNB-75 CNS): > 100 µM
- TGI (COLO 205 colon): > 100 µM
- TGI (DMS 273 small cell lung): > 100 µM
- TGI (HCT-15 colon): > 100 µM
- TGI (DLD-1 colon): > 100 µM
- TGI (RXF-631 renal): > 100 µM
- TGI (KM12 colon): > 100 µM
- TGI (HOP-92 NSCLC): > 100 µM
- TGI (A498 renal): > 100 µM
- TGI (RPMI-8226 leukemia): > 100 µM
- TGI (HOP-18 NSCLC): > 100 µM
- TGI (HOP-62 NSCLC): > 100 µM
- TGI (LXFL 529 NSCLC): > 100 µM
- TGI (KM20L2 colon): > 100 µM
- TGI (UO-31 renal): > 100 µM
- TGI (SF-295 CNS): > 100 µM
- TGI (SF-268 CNS): > 100 µM
- TGI (SNB-19 CNS): > 100 µM
- TGI (TK-10 renal): > 100 µM

Compound: Cc1ccccc1NC(=O)Cc1nc2ccccc2s1
- TGI (M14 melanoma): 25.2 µM
- TGI (SK-MEL-2 melanoma): 29.9 µM
- TGI (NCI-H460 lung): 38.2 µM
- TGI (HCT-116 colon): 31 µM
- TGI (OVCAR-4 ovarian): 32.5 µM
- TGI (MALME-3M melanoma): 30 µM
- TGI (CAKI-1 renal): 36.8 µM
- TGI (SF-539 CNS): 34.7 µM
- TGI (CCRF-CEM leukemia): 33 µM
- TGI (SN12C renal): 30.2 µM
- TGI (A549 NSCLC): 33.6 µM
- TGI (OVCAR-3 ovarian): 32 µM
- TGI (MOLT-4 leukemia): 41.5 µM
- TGI (OVCAR-8 ovarian): 32.4 µM
- TGI (SK-MEL-5 melanoma): > 100 µM
- TGI (XF 498 CNS): 27.6 µM
- TGI (OVCAR-5 ovarian): 36.3 µM
- TGI (K-562 leukemia): 38.7 µM
- TGI (U251 CNS): 24.1 µM
- TGI (ACHN renal): 29.7 µM
- TGI (SK-OV-3 ovarian): 43.3 µM
- TGI (EKVX NSCLC): 35.1 µM
- TGI (HT29 colon): 38.4 µM
- TGI (UACC-62 melanoma): 35.7 µM
- TGI (SK-MEL-28 melanoma): 32.9 µM
- TGI (RXF 393 renal): 33 µM
- TGI (UACC-257 melanoma): 30.8 µM
- TGI (NCI-H23 lung): 27.8 µM
- TGI (SW-620 colon): 36 µM
- TGI (SNB-78 CNS): 32.6 µM
- TGI (SR leukemia): 63 µM
- TGI (NCI-H226 lung): 34.9 µM
- TGI (HL-60(TB) leukemia): 62 µM
- TGI (LOX IMVI melanoma): 30.5 µM
- TGI (NCI-H522 lung): 29.3 µM
- TGI (786-0 renal): 31.6 µM
- TGI (SNB-75 CNS): > 100 µM
- TGI (COLO 205 colon): > 100 µM
- TGI (DMS 273 small cell lung): 37.6 µM
- TGI (DLD-1 colon): > 100 µM
- TGI (HCC-2998 colon): 64.9 µM
- TGI (RXF-631 renal): 32.3 µM
- TGI (KM12 colon): 31.3 µM
- TGI (A498 renal): 35.7 µM
- TGI (HOP-18 NSCLC): 17.2 µM
- TGI (LXFL 529 NSCLC): 29.9 µM
- TGI (KM20L2 colon): 36.6 µM
- TGI (UO-31 renal): 23.7 µM
- TGI (SF-295 CNS): 29.2 µM
- TGI (SF-268 CNS): 33 µM
- TGI (SNB-19 CNS): > 100 µM
- TGI (TK-10 renal): 41 µM
